Laboratory results as given in patent US20020176842A1, “Extended release of active ingredients” (priority 2001, published 2002).

Test: Spectrophotometric absorption test method (uptake of drug by unloaded resin)
Format: physicochemical
Details: within 5 hours; 55 ml of 98 mg/l indomethacin in simulated intestinal fluid, 43 mg Cholestyramine USP, 318 nm
Protocol: It is important that the drug be absorbed by the resin. The following test method is useful in determining drug absorption by the resin. In this illustration of the test method, indomethacin and cholestyramine are used. Equipment was set up as described in Example 1, except that the effluent from the uv cell was directed back to the inlet of the pump to produce a circulation flow. 55 ml of a 98 mg/1 solution of indomethacin in simulated intestinal fluid, prepared as described below, was charged to the filtration cell and the pump and stirrer started. Flow rate was approximately 6 ml/min. Absorbance readings were taken on the uv spectrophotometer at a wavelength of 318nm until a steady baseline was obtained. 43 mg of Cholestyramine USP that had been screened to remove particles <75 microns was then added to the cell. Absorbance readings were then taken at frequent intervals to observe the uptake of indomethacin. The absorbance readings were used to calculate the indomethacin concentration from a suitably determined calibration curve and to calculate the total amount of indomethacin absorbed by the resin. In the case of the indomethacin, 92% was absorbed within 5 hours.
Preparation of simulated intestinal fluid: a solution of 6.8 g/l potassium dihydrogen phosphate in deionized water was prepared and sufficient 0.2 mol/1 sodium hydroxide s added to achieve a pH of 7.5.

indomethacin absorbed by the resin: 92%
SMILES: COc1ccc2c(c1)c(CC(=O)O)c(C)n2C(=O)c1ccc(Cl)cc1 [indomethacin]
